A value given as a limit tells only on which side of the number the result lay.

These results are taken from US6255317A, “Cholesterol biosynthesis inhibitors” (Hanwha Chemical Corporation, priority 1998, dated 2001).

The first assay concerns the target T1, sterol 14-reductase (Rattus norvegicus, UniProt A0ACM8Q6X4).
T1 construct: to give a microsome which was used as an enzyme source of sterol 14-reductase; from tissue
T1 sequence (A0ACM8Q6X4 1-418): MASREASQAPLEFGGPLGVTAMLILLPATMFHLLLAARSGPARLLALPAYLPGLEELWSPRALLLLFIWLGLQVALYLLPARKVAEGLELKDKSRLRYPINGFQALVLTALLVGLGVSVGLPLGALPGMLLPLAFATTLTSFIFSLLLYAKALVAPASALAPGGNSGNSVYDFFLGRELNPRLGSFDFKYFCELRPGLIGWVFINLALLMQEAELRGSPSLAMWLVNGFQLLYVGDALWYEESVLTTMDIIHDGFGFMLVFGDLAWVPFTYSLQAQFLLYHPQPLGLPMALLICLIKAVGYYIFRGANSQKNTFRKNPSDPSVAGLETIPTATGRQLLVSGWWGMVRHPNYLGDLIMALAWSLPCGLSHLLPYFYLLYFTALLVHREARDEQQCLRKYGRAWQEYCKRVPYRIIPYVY
Put plainly: Sterol 14-reductase assay with rat liver microsomes (substrate 4,4-dimethyl-5α-cholesta-7,14-dien-3β-ol, GLC). It is filed as biochemical, Sprague-Dawley rats.
Details: not given
Turning to `COc1cc2c(cc1OC)-c1c(C)c3ccc(OC)c(OC)c3c[n+]1CC2`, the “inhibition of sterol 14-reductase (in words)” value is given as “effectively inhibit”.

Staying with this assay, now noted: dissolved in DMSO; read-out: concentration of active ingredient in the assay at which 50% of inhibitory effect was observed (sterol 14-reductase).
In the case of `COc1cc2c(cc1OC)-c1c(C)c3ccc(OC)c(OC)c3c[n+]1CC2`, the IC50 was 40000 to 50000 µM.

The assay is the same for the next values; noted with them: read-out: Enzyme Activity (relative in vitro activity for sterol 14-reductase, IC50 class).
Take `COc1ccc2c(C)c3[n+](cc2c1OC)CCc1cc2c(cc1-3)OCO2` [Compound No. 1, 13-Methylberberine]: the IC50 was 10 to 100 µM. For `COc1ccc2c(C)c3[n+](cc2c1OC)CCc1cc(O)c(O)cc1-3` [Compound No. 2, 2,3-Dihydroxy-13-methylberberine], the IC50 is 10 to 100 µM. Same read-out and setting: to `Oc1cc2c(cc1O)-c1cc3ccc(O)c(O)c3c[n+]1CC2` [Compound No. 3, 2,3,9,10-Tetrahydroxyberberine] belongs at least 100 µM; to `Cc1c2[n+](cc3c(O)c(O)ccc13)CCc1cc(O)c(O)cc1-2` [Compound No. 4, 2,3,9,10-Tetrahydroxy-13-methylberberine], 10 to 100 µM. Consider `CCc1c2[n+](cc3c(O)c(O)ccc13)CCc1cc(O)c(O)cc1-2` [Compound No. 7, 2,3,9,10-Tetrahydroxy-13-ethylberberine], for which the IC50 lay within 10 to 100 µM.

As to `C=CCc1c2[n+](cc3c(OC)c(OC)ccc13)CCc1cc3c(cc1-2)OCO3` [Compound No. 9, 13-Allylberberine], the IC50 is at least 100 µM.

As for `C=CCc1c2[n+](cc3c(O)c(O)ccc13)CCc1cc(O)c(O)cc1-2` [Compound No. 10, 2,3,9,10-Tetrahydroxy-13-allylberberine], the IC50 was at least 100 µM. As for `CCCc1c2[n+](cc3c(OC)c(OC)ccc13)CCc1cc(OC)c(OC)cc1-2` [Compound No. 11, 13-n-propylpalmatine], the IC50 lay within 10 to 100 µM. The same measure, in the same setting: the value for `CCCCc1c2[n+](cc3c(OC)c(OC)ccc13)CCc1cc(OC)c(OC)cc1-2` [Compound No. 12, 13-n-butylpalmatine] was 10 to 100 µM; that for `COc1cc2c(cc1OC)-c1c(CC3CC3)c3ccc(OC)c(OC)c3c[n+]1CC2` [Compound No. 13, 13-(cyclopropylmethyl)palmatine] was at least 100 µM. Still for that read-out and setting: the value for `CCCCCCCCc1c2[n+](cc3c(OC)c(OC)ccc13)CCc1cc(OC)c(OC)cc1-2` [Compound No. 14, 13-n-octylpalmatine] was at least 100 µM. On to `COc1cc2c(cc1OC)-c1c(CC3CCCCC3)c3ccc(OC)c(OC)c3c[n+]1CC2` [Compound No. 15, 13-(cyclohexylmethyl)palmatine], for which the IC50 was at least 100 µM.

`COc1cc2c(cc1OC)-c1c(CCCI)c3ccc(OC)c(OC)c3c[n+]1CC2` [Compound No. 16, 13-Iodopropylpalmatine]: the IC50 was 10 to 100 µM.

Regarding `CCCCOc1cc2c(cc1OCCCC)-c1cc3ccc(OCCCC)c(OCCCC)c3c[n+]1CC2` [Compound No. 17, 2,3,9,10-Tetra-n-butoxyprotoberberine], the IC50 was in the range of 10 to 100 µM. Same read-out and setting: to `COc1cc2c(cc1OC)-c1c(CCC3OCCCO3)c3ccc(OC)c(OC)c3c[n+]1CC2` [Compound No. 18, 13-(1,3-dioxane-2-yl)ethylpalmatine] belongs at least 100 µM; to `CCOC(=O)c1c2[n+](cc3c(OC)c(OC)ccc13)CCc1cc(OC)c(OC)cc1-2` [Compound No. 19, 13-Ethoxycrbonylpalmatine], at least 100 µM.

Consider `CCOC(=O)Cc1c2[n+](cc3c(OC)c(OC)ccc13)CCc1cc(OC)c(OC)cc1-2` [Compound No. 20, 13-Ethoxycarbonylmethylpalmatine], for which the IC50 is at least 100 µM. On to `COc1cc2c(cc1OC)-c1c(CC(=O)O)c3ccc(OC)c(OC)c3c[n+]1CC2` [Compound No. 21, 13-Carboxymethylpalmatine], for which the IC50 is at least 100 µM. Consider `COC(=O)C(C)c1c2[n+](cc3c(OC)c(OC)ccc13)CCc1cc3c(cc1-2)OCO3` (stereo not drawn) [Compound No. 22, 13-(1-methoxycarbonylethyl)berberine], for which the IC50 is at least 100 µM. As to `COc1ccc2c(C3CCOC3=O)c3[n+](cc2c1OC)CCc1cc2c(cc1-3)OCO2` (stereo not drawn) [Compound No. 23, 13-α-(γ-lactonyl)berberine], the IC50 was at least 100 µM. Still for that read-out and setting: to `CCOC(=O)Cc1c2[n+](cc3c(OC)c(OC)ccc13)CCc1cc3c(cc1-2)OCO3` [Compound No. 24, 13-Ethoxycarbonylmethylberberine] belongs at least 100 µM; to `CCc1c2[n+](cc3c(NCCO)c(OC)ccc13)CCc1cc(OC)c(OC)cc1-2` [Compound No. 25, 9-Hydroxyethylamino-13-ethylberberine], 10 to 100 µM; to `COc1ccc2c(c1OC)C(CC(C)=O)N1CCc3cc4c(cc3C1=C2)OCO4` (stereo not drawn) [Compound No. 26, 8-Acetonyldihydroberberine], at least 100 µM. The same measure, in the same setting: to `COc1ccc2c(c1OC)C(C)N1CCc3cc4c(cc3C1=C2)OCO4` (stereo not drawn) [Compound No. 27, 8-Methyldihydroberberine] belongs at least 100 µM. On the same count and under the same terms, to `CCC1c2c(ccc(OC)c2OC)C=C2c3cc4c(cc3CCN21)OCO4` (stereo not drawn) [Compound No. 28, 8-Ethyldihydroberberine] belongs at least 100 µM. Take `CCCC1c2c(ccc(OC)c2OC)C=C2c3cc4c(cc3CCN21)OCO4` (stereo not drawn) [Compound No. 29, 8-n-propyldiydroberberine]: the IC50 was at least 100 µM. Consider `CCCCC1c2c(ccc(OC)c2OC)C=C2c3cc4c(cc3CCN21)OCO4` (stereo not drawn) [Compound No. 30, 8-n-butyldihydroberberine], for which the IC50 was at least 100 µM.

On to `COc1ccc2c(c1OC)C(CC1CCCCC1)N1CCc3cc4c(cc3C1=C2)OCO4` (stereo not drawn) [Compound No. 31, 8-Cyclohexylmethyldihydroberberine], for which the IC50 was at least 100 µM. On to `COc1ccc2c(c1OC)C(C(C)C)N1CCc3cc4c(cc3C1=C2)OCO4` (stereo not drawn) [Compound No. 32, 8-i-propyldihydroberberine], for which the IC50 was at least 100 µM. For the compound `COc1cc2c(cc1OC)C1=Cc3ccc(OC)c(OC)c3C(C)N1CC2` (stereo not drawn) [Compound No. 33, 8-Methyldihydropalmatine], the IC50 was at least 100 µM.

For `CCC1c2c(ccc(OC)c2OC)C=C2c3cc(OC)c(OC)cc3CCN21` (stereo not drawn) [Compound No. 34, 8-Ethyldihydropalmatine], the IC50 is at least 100 µM. For `CCCCCCCCC1c2c(ccc(OC)c2OC)C=C2c3cc4c(cc3CCN21)OCO4` (stereo not drawn) [Compound No. 35], the IC50 is at least 100 µM.

For `COc1ccc2c(c1OC)C(C1CC1)N1CCc3cc4c(cc3C1=C2)OCO4` (stereo not drawn) [Compound No. 36], the IC50 is at least 100 µM. For the compound `CCC1=C2c3cc(OC)c(OC)cc3CCN2C(CC(=O)C(C)C)c2c1ccc(OC)c2OC` (stereo not drawn) [Compound No. 39, 8-(3-methylbutan-2-one-1-yl)-13-ethyldihydro palmatine], the IC50 was 10 to 100 µM.

On to `CCC1=C2c3cc(OC)c(OC)cc3CCN2C(CC(=O)CC(C)C)c2c1ccc(OC)c2OC` (stereo not drawn) [Compound No. 40, 8-(4-methylpentan-2-one-1-yl)-13-ethyldihydropalmatine], for which the IC50 fell in the range of 10 to 100 µM. On to `CCC1=C2c3cc(OC)c(OC)cc3CCN2C(CC#N)c2c1ccc(OC)c2OC` (stereo not drawn) [Compound No. 41, 8-Cyanomethyl-13-ethyldihydropalmatine], for which the IC50 is at least 100 µM.

Consider `CCC1=C2c3cc(OC)c(OC)cc3CCN2C(C2CCCC2=O)c2c1ccc(OC)c2OC` (stereo not drawn) [Compound No. 42, 8-(cyclopentanon-2-yl)-13-ethyldihydropalmatine], for which the IC50 was at least 100 µM.

With `CCC1=C2c3cc(OC)c(OC)cc3CCN2C(C2CCCCC2=O)c2c1ccc(OC)c2OC` (stereo not drawn) [Compound No. 43, 8-(cyclohexanon-2-yl)-13-ethyldihydropalmatine], the IC50 was at least 100 µM. Same read-out and setting: to `CCOc1cc2c(cc1OCC)C1=C(CC)c3ccc(OCC)c(OCC)c3C(CC(C)=O)N1CC2` (stereo not drawn) [Compound No. 44, 8-Acetonyl-13-ethyl-2,3,9,10-tetraethoxy-dihydroprotoberberine] belongs 10 to 100 µM; to `CCOc1cc2c(cc1OCC)C1=C(CC)c3ccc(OCC)c(OCC)c3C(CC(=O)C(C)C)N1CC2` (stereo not drawn) [Compound No. 45, 8-(3-methylbutan-2-one-1-yl)-13-ethyl-2,3,9,10-tetra ethoxydihydroprotoberberine], 10 to 100 µM; to `CCC1=C2c3cc(OC)c(OC)cc3CCN2C(C)c2c1ccc(OC)c2OC` (stereo not drawn) [Compound No. 48, 8-Methyl-13-ethyldihydropalmatine], at least 100 µM. In the case of `CCC1=C2c3cc(OC)c(OC)cc3CCN2C(CC)c2c1ccc(OC)c2OC` (stereo not drawn) [Compound No. 49, 8-Ethyl-13-ethyldihydropalmatine], the IC50 was at least 100 µM. On the same count and under the same terms, the value for `CCCCC1c2c(ccc(OC)c2OC)C(CC)=C2c3cc(OC)c(OC)cc3CCN21` (stereo not drawn) [Compound No. 50, 8-n-butyl-13-ethyldihydropalmatine] was at least 100 µM.
